The numbers were not newly measured in patent US10336734B2, “Inhibitors of ACK1/TNK2 tyrosine kinase” (H. LEE MOFFITT CANCER CENTER AND RESEARCH INSTITUTE, INC., priority 2015, dated 2019), which cites them from elsewhere.

The test system of the data set is castration and radioresistant prostate xenograft tumor. Conditions: in vivo; cited from earlier work.

As to `c1ccc(-c2oc3ncnc(NC[C@@H]4CCCO4)c3c2-c2ccccc2)cc1` [Example 1b], the “Castration and radioresistant prostate xenograft tumor growth” value is given as “inhibits”.
